Where a name gives a salt, the structure may show the parent alone.

We go through 22 compounds from patent US11701370B2, “Phosphonium ion channel blockers and methods for use” (Nocion Therapeutics, Inc., priority 2019, dated 2023).

In series [1] the target is T1, NaV1.7 (Homo sapiens, UniProt Q15858).
T1 construct: expressed in transfected cells; tetracycline-inducible, kept under hygromycin and blasticidin selection
Nature of the series: Internal block: intracellular inhibition of NaV1.7 current, whole cell patch clamp. The class given is cell-based. The conditions noted are these: compound in internal solution; for inhibition at 10 µM: 10 μM test concentration; for inhibition at 3 µM: 3 μM test concentration. On the procedure:
(§1) NaV1.7 was expressed upon induction with tetracycline. Cells were cultured in DMEM containing 10% dialyzed Fetal Bovine Serum (VWR, Radnor, Pa.), 1% Glutamax (VWR, Radnor, Pa.), 1% Penicillin-Streptomycin (VWR, Radnor, Pa.), 100 mg/L Hygromycin (Thermo Fisher Scientific, Waltham, Mass. and 5 mg/L Blasticidin (Alfa Aesar, Haverhill, Mass.). Cells were grown and maintained at 37° C. in a humidified environment containing 10% CO2 in air. Cells were detached from the culture flask for passage and harvested using 0.05% Trypsin-EDTA (Thermo Fisher Scientific, Waltham, Mass.). To induce NaV1.7, cells were induced with tetracycline (0.1-1 μg/mL, IBI Scientific, Peosta, Iowa) the day before recording and plated onto 24-well plates. Cells were washed with DPBS (VWR, Radnor, Pa.), trypsinized and then triturated five times in 10 mL of growth media to break apart cell aggregates. For one 24-well plate, 2 mL of cell suspension was mixed with 23 mL of fresh growth media and 0.1-1 μg/mL tetracycline added. 1 ml of mixed media with cells was then added to each well of a 24-well plate, with a 12 mm coverslip already placed in the bottom of the well. Cells were then incubated in 37° C. and 10% CO2 overnight.
(§2) The intracellular solution contained the following (in mM) CsCl 135, NaCl 10, EGTA 10, HEPES 10, MgCl22, adjusted to pH 7.2 with CsOH. The external solution was a normal Ringer solution containing (in mM) NaCl 155, HEPES 10, glucose 10, KCl 3.5, CaCl2 1.5, MgCl2 1 adjusted to pH 7.4 with NaOH. CsCl is from Alfa Aesar, Haverhill, Mass. All other chemicals are from Sigma-Aldrich, St. Louis, Mo. In order to test the degree of internal block by test compounds the compounds were dissolved in internal solution at the indicated test concentration. […] In order to test the degree of external block by test compounds the compounds were dissolved in external solution at the indicated test concentration.
(§3) 18-24 hours after cells were induced with tetracycline, coverslips were placed into a chamber filled with Normal Ringer solution at room temperature and the chamber placed on a microscope. Pipettes were pulled from borosilicate glass on a P97 puller (Sutter Instrument, Novato, Calif.) and polished with a MF-830 Microforge (Narishige International USA, Inc, Amityville, N.Y.) to have a resistance of 1.5-2.5 MΩ when filled with CsCl internal solution at room temperature. Healthy cells (those that are round and translucent with no visible blemishes) were chosen for seal formation. A seal was formed between the pipette and the cell, and a brief pulse of suction was used to “break in” and establish the whole-cell configuration. The membrane potential was held at −100 mV before the voltage protocol began. Only cells with series resistance between 1.5-5 MΩ were retained for analysis. The voltage protocol was as follows: Cells were held at −100 mV for 12 ms followed by a hyperpolarizing step to −105 mV for 12 ms to monitor the leak. Cells were then stepped back to −100 mV for 40 ms. Cells were then depolarized to −20 mV for 10 ms and then returned to −100 mV for 26 ms (FIG. 1).
(§4) Once the recording was started, the voltage protocol was run at 30 second intervals for 5 minutes to get a stable baseline. This was followed by four 30-second periods of 5 Hz stimulation of the same voltage protocol separated by 1 minute of rest which was then followed by 0.33 Hz stimulation after the last train. Currents were recorded using PatchMaster software with Heka EPC10 (HEKA Electronics, Lambrecht, Germany). Only cells with inward current amplitudes at −20 mV between 400 pA and 4 nA were accepted. In addition, cells having leak currents greater than 10% of their current amplitudes were discarded.
(§5) The data was plotted using the Patchmaster software (HEKA Electronics, Lambrecht, Germany) and analyzed by plotting the minimum current during the voltage step to −20 mV (peak inward current) as a function of time. […]
(In patch-clamp work, channel activity is measured electrically.)

The target of series [2] is T1, NaV1.7. Nature of the series: External block: extracellular inhibition of NaV1.7 current, whole cell patch clamp. The conditions noted are these: compound in external solution; for inhibition at 10 µM: 10 μM test concentration; for inhibition at 3 µM: 3 μM test concentration. It counts as cell-based. On the procedure:
as §1, §2, §3
as §4, with “This is” for “This was”, “by” for “by four 30-second periods of”, “protocol run until the end” for “protocol separated by 1 minute”, “of experiment. […] The test compound is added for 5 minutes before washing out with normal Ringer's solution.” for “of rest which was then followed by 0.33 Hz stimulation after the last train.”
as §5

Series [3] in a line: PAMPA membrane permeability assay (artificial lipid membrane, passive diffusion). The class given is in vitro ADME. Conditions: pH 7.4 buffer, GIT lipid, 4 hours incubation. On the procedure:
The PAMPA assay (pION, Inc., Woburn Mass.) was used to determine the ability of compounds of the invention to cross an artificial lipid membrane by passive diffusion. Test compounds were dissolved in DMSO (10 mM) and diluted 200-fold in buffer (pION Inc., pH 7.4) to provide 50 uM stock solutions. Buffer (150 μL) was added to a UV blank plate and stock solutions (150 μL) were transferred to a UV reference plate. The blank and reference spectrum were read using a spectrophotometer. Stock solutions (200 μL) were added to the donor plate of the PAMPA sandwich plate and an accept plate painted with GIT lipid (pION Inc, 5 μL) was placed on top. Buffer (200 μL) was added to the acceptor plate and the PAMPA sandwich plate was incubated for 4 hours. Aliquots (150 μL) from the acceptor plate were added to a UV plate and read as acceptor spectrum. Aliquots (150 μL) of the donor solutions were added to a UV analysis plate and read as donor spectrum. The permeability coefficient of test compounds was calculated using PAMPA Explorer™ software (version 3.5.0.4) based on the AUC of the reference plate, the donor plate, and the acceptor plate.
The PAMPA permeability results (10^−6 cm/s) of representative compounds are reported as “+” (<0.1 10^−6 cm/s), “++” (0.1-2.0 10^−6 cm/s), “+++” (2.0-10.010^−6 cm/s) or “++++” (>10.0 10^−6 cm/s).
(In general: The PAMPA barrier holds no transporters, so it reflects passive diffusion.)

T1 sequence (Q15858 whole entry): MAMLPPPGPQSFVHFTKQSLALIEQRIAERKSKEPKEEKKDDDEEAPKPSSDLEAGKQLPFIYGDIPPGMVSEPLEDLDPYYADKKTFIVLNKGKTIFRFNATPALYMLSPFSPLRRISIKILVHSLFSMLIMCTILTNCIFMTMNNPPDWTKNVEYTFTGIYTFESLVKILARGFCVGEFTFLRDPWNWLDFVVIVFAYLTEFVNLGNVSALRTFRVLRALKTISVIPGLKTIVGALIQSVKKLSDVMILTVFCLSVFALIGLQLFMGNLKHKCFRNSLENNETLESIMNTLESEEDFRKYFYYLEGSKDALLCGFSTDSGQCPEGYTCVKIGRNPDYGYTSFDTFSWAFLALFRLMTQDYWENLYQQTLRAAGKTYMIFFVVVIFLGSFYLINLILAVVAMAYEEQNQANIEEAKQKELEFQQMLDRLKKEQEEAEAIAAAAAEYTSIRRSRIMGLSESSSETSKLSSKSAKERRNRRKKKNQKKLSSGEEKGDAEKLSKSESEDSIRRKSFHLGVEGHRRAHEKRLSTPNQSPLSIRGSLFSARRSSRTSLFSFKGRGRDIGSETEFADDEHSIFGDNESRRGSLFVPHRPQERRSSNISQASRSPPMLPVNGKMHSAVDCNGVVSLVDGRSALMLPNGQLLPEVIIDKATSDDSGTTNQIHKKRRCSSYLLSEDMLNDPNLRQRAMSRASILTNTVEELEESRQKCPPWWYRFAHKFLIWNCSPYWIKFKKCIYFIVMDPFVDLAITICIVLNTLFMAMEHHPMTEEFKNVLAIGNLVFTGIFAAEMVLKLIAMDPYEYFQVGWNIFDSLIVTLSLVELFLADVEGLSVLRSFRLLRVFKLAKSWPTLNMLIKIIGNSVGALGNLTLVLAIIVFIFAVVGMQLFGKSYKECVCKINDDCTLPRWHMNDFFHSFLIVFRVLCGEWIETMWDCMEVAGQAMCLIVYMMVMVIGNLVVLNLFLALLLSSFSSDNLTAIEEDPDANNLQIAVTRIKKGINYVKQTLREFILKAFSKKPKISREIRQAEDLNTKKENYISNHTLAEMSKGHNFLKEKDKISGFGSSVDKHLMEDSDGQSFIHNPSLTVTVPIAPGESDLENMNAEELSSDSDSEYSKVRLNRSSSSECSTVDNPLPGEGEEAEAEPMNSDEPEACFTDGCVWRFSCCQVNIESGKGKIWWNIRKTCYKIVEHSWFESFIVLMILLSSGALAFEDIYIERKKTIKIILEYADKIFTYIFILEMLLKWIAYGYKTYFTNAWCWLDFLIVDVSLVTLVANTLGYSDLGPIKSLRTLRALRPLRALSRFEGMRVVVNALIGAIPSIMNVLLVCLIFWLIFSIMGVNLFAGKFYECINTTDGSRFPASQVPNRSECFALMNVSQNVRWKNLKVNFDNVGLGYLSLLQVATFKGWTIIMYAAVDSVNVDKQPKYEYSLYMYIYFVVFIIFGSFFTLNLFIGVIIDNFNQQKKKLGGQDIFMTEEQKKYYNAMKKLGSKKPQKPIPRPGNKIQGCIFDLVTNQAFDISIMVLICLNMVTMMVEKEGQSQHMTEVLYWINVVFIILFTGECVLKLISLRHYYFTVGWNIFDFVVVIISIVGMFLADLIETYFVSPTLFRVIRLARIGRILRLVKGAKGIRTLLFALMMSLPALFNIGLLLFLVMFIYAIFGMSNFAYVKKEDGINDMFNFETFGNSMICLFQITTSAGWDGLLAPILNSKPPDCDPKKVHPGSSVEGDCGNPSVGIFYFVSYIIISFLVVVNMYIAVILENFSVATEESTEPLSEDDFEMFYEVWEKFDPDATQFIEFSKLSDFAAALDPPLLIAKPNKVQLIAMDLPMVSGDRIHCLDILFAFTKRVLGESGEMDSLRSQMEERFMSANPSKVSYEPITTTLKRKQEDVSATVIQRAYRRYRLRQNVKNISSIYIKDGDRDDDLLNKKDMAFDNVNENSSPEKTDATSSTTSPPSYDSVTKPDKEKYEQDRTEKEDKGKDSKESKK

The term inhibition denotes the relative decrease from the control value, in per cent. As a reminder, the Papp is the rate of passage across a membrane or cell layer, normalised by area and donor concentration. At NaV1.7 [1], `CC[P+](CC)(CC)CC(=O)Nc1c(C)cccc1C` [Compound 1, (2-((2,6-dimethylphenyl)amino)-2-oxoethyl) triethylphosphonium bromide] registered an inhibition at 10 µM of 70 to 95%. The inhibition at 1000 µM against NaV1.7 [2] (1,000 μM test concentration) is below 40%. The compound also returned a Papp at 4 h, 50 uM in series [3] below 0.1 ×10⁻⁶ cm/s.

`CCC(C(=O)Nc1c(C)cccc1C)[P+](CC)(CC)CC` (centres unmarked) [Compound 2, (1-((2,6-dimethylphenyl)amino)-1-oxobutan-2-yl) triethylphosphonium carbonate]: the inhibition at 10 µM on NaV1.7 [1] is 40 to 70%. The compound further gave a Papp at 4 h, 50 uM in series [3] above 10 ×10⁻⁶ cm/s.

`Cc1cccc(C)c1NC(=O)C[P+]1(Cc2ccccc2)CCCCCC1` [Compound 3, 1-benzyl-1-(2-((2,6-dimethylphenyl)amino)-2-oxoethyl) phosphepan-1-ium bromide]: the inhibition at 10 µM at NaV1.7 [1] is above 95%; on NaV1.7 [2] it was 40 to 70%. This compound also registered a Papp at 4 h, 50 uM in series [3] below 0.1 ×10⁻⁶ cm/s.

With `Cc1cccc(C)c1NC(=O)C[P+]1(Cc2ccccc2)CCCCC1.[Br-]` [Compound 4, 1-benzyl-1-(2-((2,6-dimethylphenyl)amino)-2-oxoethyl) phosphinan-1-ium bromide], the inhibition at 10 µM at NaV1.7 [1] is above 95%; against NaV1.7 [2], 40 to 70%. Further, in series [3], the apparent permeability coefficient (Papp) at 4 h, 50 uM was 0.1 to 2 ×10⁻⁶ cm/s.

Consider `Cc1cccc(C)c1NC(=O)C[P+]1(Cc2ccccc2)CCCC1` [Compound 5, 1-benzyl-1-(2-((2,6-dimethylphenyl)amino)-2-oxoethyl) phospholan-1-ium bromide], for which the inhibition at 10 µM on NaV1.7 [1] is 70 to 95%; at NaV1.7 [2] it was below 40%. Moreover, in series [3], the Papp at 4 h, 50 uM lay within 0.1 to 2 ×10⁻⁶ cm/s.

The compound `CC[P+](CC)(CC(=O)Nc1c(C)cccc1C)CC(=O)Nc1c(C)cccc1C` [Compound 6, bis (2-((2,6-dimethylphenyl)amino)-2-oxoethyl) diethyl phosphonium acetate] had an inhibition at 10 µM at NaV1.7 [1] of 70 to 95%. The Papp at 4 h, 50 uM in series [3] is below 0.1 ×10⁻⁶ cm/s.

`CCCC[P+](CCCC)(CCCC)CC(=O)Nc1c(C)cccc1C.[Br-]` [Compound 7, tri-n-butyl (2-((2,6-dimethylphenyl)amino)-2-oxoethyl) phosphonium bromide] registered an inhibition at 10 µM against NaV1.7 [1] above 95%. The compound also yielded a Papp at 4 h, 50 uM in series [3] of 2 to 10 ×10⁻⁶ cm/s.

Take `Cc1cccc(C)c1NC(=O)C[P+](c1ccccc1)(c1ccccc1)c1ccccc1.O=C[O-]` [Compound 8, (2-((2,6-dimethylphenyl)amino)-2-oxoethyl) triphenylphosphonium formate]: the inhibition at 10 µM at NaV1.7 [1] was above 95%. The inhibition at 3 µM at NaV1.7 [2] lay in the range of 40 to 70%. This compound also returned a Papp at 4 h, 50 uM in series [3] below 0.1 ×10⁻⁶ cm/s.

`CCC(C(=O)Nc1c(C)cccc1C)[P+](c1ccccc1)(c1ccccc1)c1ccccc1` (centres unmarked) [Compound 9, (1-((2,6-dimethylphenyl)amino)-1-oxobutan-2-yl) triphenylphosphonium formate]: the inhibition at 10 µM at NaV1.7 [1] was above 95%. The Papp at 4 h, 50 uM in series [3] fell in the range of 2 to 10 ×10⁻⁶ cm/s.

Regarding `CCC(C(=O)Nc1c(C)cccc1C)[P+]1(Cc2ccccc2)CCCCC1` (centres unmarked) [Compound 10, 1-benzyl-1-(1-((2,6-dimethylphenyl)amino)-1-oxobutan-2-yl)phosphinan-1-ium formate], the inhibition at 10 µM against NaV1.7 [1] was above 95%. Further, the inhibition at 3 µM at NaV1.7 [2] was in the range of 40 to 70%. The same compound yielded a Papp at 4 h, 50 uM in series [3] below 0.1 ×10⁻⁶ cm/s.

As to `CCC(C(=O)Nc1c(C)cccc1C(=O)OC)[P+]1(Cc2ccccc2)CCCCC1` (centres unmarked) [Compound 11], on NaV1.7 [1], the inhibition at 3 µM lay within 70 to 90%. Moreover, the Papp at 4 h, 50 uM in series [3] was below 0.1 ×10⁻⁶ cm/s.

For `CCC(C(=O)Nc1c(C#N)cccc1C(=O)OC)[P+]1(Cc2ccccc2)CCCCC1` (centres unmarked) [Compound 12], the inhibition at 3 µM at NaV1.7 [1] lay within 70 to 90%.

Regarding `CCOC(=O)c1cccc(C)c1NC(=O)C[P+]1(Cc2ccccc2)CCCCC1` [Compound 13], the inhibition at 3 µM on NaV1.7 [1] is above 90%; against NaV1.7 [2] it was 40 to 70%. Moreover, the Papp at 4 h, 50 uM in series [3] is below 0.1 ×10⁻⁶ cm/s.

For `Cc1cccc(C(=O)OC(C)(C)C)c1NC(=O)C[P+]1(Cc2ccccc2)CCCCC1` [Compound 14], the inhibition at 3 µM at NaV1.7 [1] was 40 to 70%. In series [3], this compound had a Papp at 4 h, 50 uM below 0.1 ×10⁻⁶ cm/s.

`CCOC(=O)c1cccc(F)c1NC(=O)C[P+]1(Cc2ccccc2)CCCCC1` [Compound 15]: the inhibition at 3 µM at NaV1.7 [1] was 70 to 90%; against NaV1.7 [2], below 40%. This compound gave a Papp at 4 h, 50 uM in series [3] below 0.1 ×10⁻⁶ cm/s.

On NaV1.7 [1], `COC(=O)c1cccc(C)c1NC(=O)C[P+]1(Cc2ccccc2)CCCCC1` [Compound 16] had an inhibition at 3 µM of 70 to 90%.

In the case of `CCOC(=O)c1cccc(Cl)c1NC(=O)C[P+]1(Cc2ccccc2)CCCCC1` [Compound 17], the inhibition at 3 µM is above 90% against NaV1.7 [1] and 40 to 70% against NaV1.7 [2]. The Papp at 4 h, 50 uM in series [3] is above 10 ×10⁻⁶ cm/s.

On NaV1.7 [1], `CCOC(=O)c1cccc(CC)c1NC(=O)C[P+]1(Cc2ccccc2)CCCCC1` [Compound 19] gave an inhibition at 3 µM of 70 to 90%. Besides, the inhibition at 10 µM at NaV1.7 [2] was in the range of 40 to 70%. In series [3], this compound gave a Papp at 4 h, 50 uM below 0.1 ×10⁻⁶ cm/s.

Regarding `CCOC(=O)c1cccc(OCC)c1NC(=O)C[P+]1(Cc2ccccc2)CCCCC1` [Compound 20], the inhibition at 3 µM at NaV1.7 [1] was above 90%; on NaV1.7 [2], below 40%. In addition, in series [3], the Papp at 4 h, 50 uM is below 0.1 ×10⁻⁶ cm/s.

Consider `CC[P+](CC)(CC)CC(=O)Nc1c(C)cccc1C(=O)OC.[Br-]` [Compound 21], for which, on NaV1.7 [1], the inhibition at 3 µM was below 40%. For the same compound, the Papp at 4 h, 50 uM in series [3] was below 0.1 ×10⁻⁶ cm/s.

With `CCCC[P+](CCCC)(CCCC)CC(=O)Nc1c(C)cccc1C(=O)OC.[Br-]` [Compound 22], on NaV1.7 [1], the inhibition at 3 µM is 70 to 90%. The compound also yielded a Papp at 4 h, 50 uM in series [3] below 0.1 ×10⁻⁶ cm/s.

As to `COC(=O)c1cccc(C)c1NC(=O)C[P+](c1ccccc1)(c1ccccc1)c1ccccc1` [Compound 23], the inhibition at 3 µM at NaV1.7 [1] is below 40%. In series [3], the Papp at 4 h, 50 uM is below 0.1 ×10⁻⁶ cm/s.
